Values of other authors in PMC6957711 (Journal of Alzheimer's Disease, 2020).

How the values were obtained:
[1] = Phase III clinical studies
[2] = system: tau; details: in vitro

SMILES	clinical endpoints [1]	tau fibril formation [2]	tau oligomer formation [2]
CN(C)c1ccc2c(c1)Sc1cc(N(C)C)ccc1N2.CS(=O)(=O)O.CS(=O)(=O)O [LMTX, Leuco-Methylthioninium Bis(Hydromethanesulphonate)]	failed to meet its clinical endpoints		
CN(C)c1ccc2nc3ccc(=[N+](C)C)cc-3sc2c1 [methylene blue]		inhibits	accelerates
